US20250250538A1, “METHODS FOR MAKING AND USING DIFFERENTIATED NEURAL CELLS” (RESEARCH DEVELOPMENT FOUNDATION, priority 2022, published 2025)

Tests used:
[1] = tested on: human embryonic stem cell line HS420; assay: Dopaminergic differentiation of hESC with ALK inhibitors in the 3D-AirLiwell protocol, q-PCR after 2 and 4 weeks; assay type: cell-based; details: HS420, 3D-AirLiwell, q-PCR at 2 and 4 weeks; for activity with respect to general neural differentiation, compared to LDN/SB (dual smad inhibition): exposed from day 0 during one week at 0.2 μM and 0.8 μM; for effect on dopaminergic differentiation, compared to LDN/SB: exposed from day 0 during one week at 0.2 M and 0.8 M
Method: FIG. 22. Dopaminergic differentiation adding Alk-I compounds in 3D-Ali protocol. The concentrations of the compounds tested were 0.2 μM and 0.8 μM.
FIG. 23A-D. Quantitative PCR results: Dopaminergic differentiation adding Alk-I compounds in 3D-Ali protocol. Shown are qPCR results at week 2 and week 4 for (A) Ki-67 and Nestin; (B) Pax6 and B3-Tub; (C) Lmx1a and Nurr-1; and (D) Map-2 and TH. The data in FIGS. 23A-D shown in each group of 12 bars represents, from left to right: 1: Control day 0, 2: LDN193189/SB431542, 3: DMSO 0.2 μM, 4: DMSO 0.8 μM, 5: DMH1 0.2 μM, 6: DMH2 0.2 μM, 7: A-8301 0.2 μM, 8: K02288 0.2 μM, 9: DMH1 0.8 μM, 10: DMH2 0.8 μM, 11: A-8301 0.8 μM, 12: K02288 0.8 μM. The 11 bars in the bottom bar graph in FIG. 23D represent data, from left to right, from: 1: Control day 0, 2: LDN193189/SB431542, 3: DMSO 0.2 μM, 4: DMSO 0.8 μM, 5: DMH1 0.2 μM, 6: DMH2 0.2 μM, 7: A-8301 0.2 μM, 8: K02288 0.2 μM, 9: DMH1 0.8 μM, 10: DMH2 0.8 μM, and 11: A-8301 0.8 μM.
For neural differentiation, 2200 human pluripotent stem cells per microwell in supplemented X-VIVO medium were deposited on a substrate material consisting in molded microwells on an insert in air-liquid interface (720 microwells per well). In order to correctly distribute the cells in each microwell, the substrate material is gently shacked and put on a stable support for 15 min. Supplemented X-VIVO medium was added under the insert. Medium from the cell suspension added on the microwells, was then removed by aspiration with a 0.5×16 mm needle and spheroids are just covered by a thin film (10) of residual medium before incubation of the plate at 37° C. for 24 hours.
24 hours after spheroids formation, culture medium under the insert is replaced with fresh medium made by a combination of half X-VIVO and half Neurobasal medium without ROCK inhibitor supplemented with 1% of penicillin/streptomycin, 1% Non-essential amino-acids, 1% B-27 supplement (Thermofisher), L-Glutamin, 0.5 μM of SB431542, 10 μM LDN193189 (dual-SMAD inhibition cocktail), 100 ng/ml of SHH, 2 μM of Purmorphamin and 100 ng/ml FGF-8. Spheroids are then cultured in their individualized microwells in a conventional incubator at 37° C. and 5% C02. At day 3, 3 μM of CHIR99021 was added. The neurobasal medium replaced progressively the X-VIVO medium. At day 8, medium is replaced by Neurobasal medium supplemented with 1% of penicillin/streptomycin, 1% Non-essential amino-acids, 1% B-27 supplement, 3 μM of CHIR99021, 0.5 mM of cAMP, […], […], 5 ng/mL of FGF20, 1 ng/mL of TGF-B3 and 1 μM of Compound E. At day 13 CHIR99021 is removed. NB: for each medium exchange, the half of medium was refreshed, using 0.5 ml per well.
For qRT-PCR, RNA was extracted from dopaminergic neurospheres cultivated in immersion (3D-i) and in air-liquid culture interface (3D-ALi) derived from 3 different cell batches of HS420 cells. The time points for RNA extraction were days: 3, 8, 15, 22, 29, 43, 57. Total RNA isolation was performed using the Qiagen RNeasy kit according to the manufacturer's instructions. RNA concentration was determined by a spectrometer (Thermo Scientific™ NanoDrop 2000) and RNA quality was verified by the 2100 Bioanalyzer (Agilent). Quantitative PCR was performed with Tecan Freedom Evo by using SYBR green fluorescence. cDNA was produced from RNA by using the prime script RT reagent kit (Takara). All primers were diluted at a concentration of […], and a master mix was used (Power SYBR Green Master Mix, Thermo Fisher Scientific). To perform the RNA-sequencing, the same RNA used in qPCR, were used to analyze the gene expression at week 6 (=day 43) of differentiation. […]

[2] = tested on: dopaminergic neurospheres; assay: Effects of antioxidants on three-dimensional dopaminergic neuron differentiation (3D-Ali); assay type: cell-based, human; details: 3D-Ali neurospheres cultured with anti-oxidant (FIG. 21B)
Text: FIG. 20. Protocol design with the addition of anti-oxidants. FIG. 21A-B. Effects of DA maturation with the additional of anti-oxidants. […] The inventors also tested the effects of different antioxidants on three-dimensional dopaminergic neuron differentiation. […] Most of the tested anti-oxidants diminish TH expression during dopaminergic neuron differentiation.

[3] = tested on: dopaminergic neurospheres; assay: Effect of laminin and hypoxia on dopaminergic maturation of neurospheres; assay type: cell-based, human; details: 2.5% and 10% laminin; normoxia (20% oxygen) or hypoxia (3% oxygen); day 29
Text: FIG. 17. Experimental design and engineering of maturation protocol.
FIG. 18. Effect of hypoxia and laminin on dopaminergic maturation.
To improve the maturation step, 2.5% or 10% of Laminin 511 (Takkara) or Geltrex® (A growth factors reduced extracellular matrix, ThermoFisher) will be added into the cell culture medium to promote neuronal maturation of spheroids starting from day 1 of differentiation to the end and from day 13 to the end. RGD peptides could also be tested to enhance maturation, by adding them to the culture medium similarly to laminin or geltrex.
The inventors tested whether the additional of an extracellular matrix and/or hypoxia could improve the development of mature neurons. 2.5% and 10% laminin and normoxia (20% oxygen) or hypoxia (3% oxygen) was tested (FIG. 17). […] It was further hypothesized that other changes to the cell culture, such as modification of the volume of the cell culture medium could provide for an improvement in the maturation of neurons. […] In AirLiwell (6 well plate), a seeding 1.5 million cells per well (6 well AirLiwell plate) yields 2350 neurospheres.

Molecule | activity with respect to general neural differentiation, compared to LDN/SB (dual smad inhibition) [1] | effect on dopaminergic differentiation, compared to LDN/SB [1] | DA neuron differentiation [2] | effect on maturation of dopaminergic neurons [3]
Cc1cccc(-c2nn(C(=S)Nc3ccccc3)cc2-c2ccnc3ccccc23)n1 [A-8301, 3-(6-Methyl-2-pyridinyl)-N -phenyl-4-(4-quinolinyl)-1H -pyrazole-1-carbothioamide] | activity comparable to LDN/SB | no major effects | – | –
CC(C)Oc1ccc(-c2cnc3c(-c4ccnc5ccccc45)cnn3c2)cc1 [DMH1, 4-[6-[4-(1-Methylethoxy)phenyl]pyrazolo[1,5-a]pyrimidin-3-yl]-quinoline] | activity comparable to LDN/SB | roughly equipotent as compared to LDN/SB | – | –
c1ccc2c(-c3cnn4cc(-c5ccc(OCCN6CCOCC6)cc5)cnc34)ccnc2c1 [DMH2, 4-[6-[4-[2-(4-Morpholinyl)ethoxy]phenyl]pyrazolo[1,5-a]pyrimidin-3-yl]quinoline] | activity comparable to LDN/SB | roughly equipotent as compared to LDN/SB | – | –
COc1cc(-c2cc(-c3cccc(O)c3)cnc2N)cc(OC)c1OC [K02288] | activity comparable to LDN/SB | no major effects | – | –
O=C1O[C@H]([C@@H](O)CO)C(O)=C1O [ascorbic acid] | – | – | marked enhancement | –
laminin | – | – | – | did not provide any apparent effect
